Patent US7553928B2, “Use of des-Aspartate-angiotensin I as an agent for the treatment and prevention of glomerulosclerosis and renal failure” (priority 2000, dated 2009)

Tests used:
normal rats = test: Urine protein excretion in normal rats; format: in vivo, Sprague Dawley rats
Source text: Data were expressed as mean±SEM. […] The accepted level of significance was p<0.05.

⅚ nephrectomized rats = test: Urine protein excretion in five-sixths nephrectomized (ablation proteinuric) rats; format: in vivo, Sprague Dawley rats; details: for 24-hour urinary excretion of protein, Weeks 9-16: 762 nmoles/kg/day orally for 8 weeks (weeks 9-16 post nephrectomy); for 24-hour urinary excretion of protein, Weeks 9-16 / 24-hour urinary excretion of protein, Weeks 1-8: mean ± SEM; for 24-hour urinary excretion of protein, Weeks 1-8: treatment group in weeks 1-8 post nephrectomy, before treatment started (baseline)
Method: nephrectomy was carried out as described by Morrison (11). Briefly, each animal was anaesthetized with 7% w/v chloral hydrate (0.4 g/kg, i.p.). An incision was made in the ventral abdominal wall to access the kidneys. Right nephrectomy was performed and the cranial and caudal third of the left kidney were cut off. Tissue adhesive (Histoccryl, B. Braun) was used to seal the cut ends of the left kidney and prevent bleeding. In this way 5⁄6 of the renal parenchyma was removed. This model results in focal and segmental glomerulosclerosis, resembling renal lesions in humans like oligomeganephronia, membranous nephropathy, minimal change nephritis, proliferative glomerulonephritis, analgesic nephropathy, diabetes mellitus, unilateral nephrectomy, cortical necrosis, and unilateral renal agenesis (9). Following the operation, each animal was placed in a metabolic cage for 24 hours once a week for a duration of 8 weeks. The 24-hour urine output and the concentration of protein in the urine were measured. After the 8th week, the animals were randomly divided into two groups (8 animals per group). Animals in one of the group (the treatment group) were orally administered 762 nmoles/kg/day of des-Asp-angiotensin I dissolved in 0.5 ml of saline via a 1-ml syringe with a blunted needle for a period of 8 weeks. The dose of 762 nmoles/kg/day was calculated based on the maximum effective oral anti-cardiac hypertrophic dose (250 nmole per rat of average weight of 328 g) in the original parent patent. Animals in the other group (the control group) were similarly administered with 0.5 ml of saline. Weekly measurement of 24-hour urine output and the concentration of protein in the urine in these animals were carried out for another 8 weeks. The protocol was designed based on our preliminary observation that urinary excretion of protein in the 5⁄6 nephrectomized rats commenced to increase above the normal value in 7th to 8th week post nephrectomy. A repeat of the experiment with 12 nephrectomized rats per group was carried out. Data were expressed as mean±SEM. […] The accepted level of significance was p<0.05.

Substance: des-Aspartate angiotensin I [des-Asp-angiotensin I]
- 24-hour urinary excretion of protein, Weeks 1-8 (normal rats; Table 4, normal rats, treatment group (762 nmoles/kg/day), 12 rats, mean ± SEM, saline control 18.7 ± 1.8): 16.1 ± 1.7 mg
- 24-hour urinary excretion of protein, Weeks 9-16 (normal rats; Table 4, normal rats, treatment group (762 nmoles/kg/day), 12 rats, mean ± SEM, saline control 19.9 ± 2.2): 17.8 ± 1.1 mg
- Effect on urinary excretion of protein in normal rats (normal rats; normal rats, oral dose of 762 nmoles/kg/day): no effect
- 24-hour urinary excretion of protein, Weeks 9-16 (⅚ nephrectomized rats; Table 2, first experiment, 8 rats, saline control 37.2 ± 2.3, p = 0.024): *28.7 ± 2.5 mg
- 24-hour urinary excretion of protein, Weeks 1-8 (⅚ nephrectomized rats; Table 2, first experiment, 8 rats): 16.4 ± 1.6 mg
- 24-hour urinary excretion of protein, Weeks 9-16 (⅚ nephrectomized rats; Table 3, repeat experiment, 12 rats, saline control 51.7 ± 4.7, p = 0.048): *39.6 ± 3.3 mg
- 24-hour urinary excretion of protein, Weeks 1-8 (⅚ nephrectomized rats; Table 3, repeat experiment, 12 rats): 19.9 ± 1.5 mg
- Anti-proteinuric action (progressive development of proteinuria) (⅚ nephrectomized rats; ablation nephropathic rats, oral dose of 762 nmoles/kg/day): effective agent in attenuating the progressive development of proteinuria
